{
  "source": "patent US4978783A",
  "about": "“2,6-dimethoxyhydroquinone-3-mercaptopropionic acid, 2,6-dimethoxyhydroquinone-3-mercaptoacetic acid, and antitumor use thereof” (National Science Council, priority 1990, dated 1990)",
  "key": {"[1]": {"test_system": "KB (oral epidermoid carcinoma) cells", "experiment": "Cytotoxicity against KB cells by the MTT method", "assay_type": "cell-based, human", "conditions": "5760 min", "from_the_text": "(§1) A convenient cytotoxicity assay adopted in this example for the evaluation of antitumor activity is the MTT method disclosed in an article by Twentyman and Luscombe, entitled \"A study of some variables in a tetrazolium dye (MTT) based assay for cell growth and chemosensitivity\" Br. J. Cancer. 56, 279-285 (1987).\n(§2) Four different human cancer cell lines were used in this assay. These were KB (oral epidermoid carcinoma); Colo-205 (colon adenocarcinoma); HeLa (cervical carcinoma); and HEP-2 (larynx epidermoid carcinoma).\n(§3) Cells were taken from exponential phase cultures and were allowed to grow in a plate containing 96 wells using RPMI-1640 medium supplemented with 5% fetal bovine serum, 1 mM glutamine and antibiotics (penicillin and streptomycin) at 37° C. in a CO2 incubator. Cell suspensions were trypsinized and disaggregated. 3×10^3 cells were inoculated into each well in 0.18 ml of medium, to which 0.02 ml of drug was added. After 4 days of culture, 0.1 mg of 3-(4,5-dimethylthiazol-2-yl)-2,5-diphenyltetrazolium bromide (MTT) was added to each well and the plate incubated for 4 hours. The medium was then removed, 0.2 ml DMSO was added to each well and the plate agitated for 10 min. The optical density of each well was measured at a 545 nm test wavelength and a 690 nm reference wavelength using a Titertek Multiskan plate reader. Absorbance levers from drug tested cells were corrected against untreated control values.\n(§4) *Cytotoxicity index (CI) = 100% × [1(O.D. of treated cells / O.D. o"}, "[2]": {"test_system": "HEP-2 (larynx epidermoid carcinoma) cells", "experiment": "Cytotoxicity against HEP-2 cells by the MTT method", "assay_type": "cell-based, human", "conditions": "5760 min", "from_the_text": "as §1, §2, §3, §4"}, "[3]": {"test_system": "Colo-205 (colon adenocarcinoma) cells", "experiment": "Cytotoxicity assay against Colo-205 cells by the MTT method", "assay_type": "cell-based, human", "conditions": "for CI: 5760 min; for Cytotoxicity index (CI): Table 1, 4 days; for CI value compared with DMQ, in words: versus DMQ", "method": "Four different human cancer cell lines were used in this assay.\nas §3, with “Cell” for “Cells were taken from exponential phase cultures and were allowed to grow in a plate containing 96 wells using RPMI-1640 medium supplemented with 5% fetal bovine serum, 1 mM glutamine and antibiotics (penicillin and streptomycin) at 37° C. in a CO2 incubator. Cell”\nas §4"}, "[4]": {"test_system": "HeLa (cervical carcinoma) cells", "experiment": "Cytotoxicity against HeLa cells by the MTT method", "assay_type": "cell-based, human", "conditions": "5760 min", "from_the_text": "as §1, §2, §3, §4"}, "human tumor cell lines": {"test_system": "human tumor cell lines", "experiment": "Cytotoxicity against four/several human tumor cell lines, (MTT method)", "assay_type": "cell-based", "conditions": "for cytotoxicity at 100 µg/mL: 96 h, each alone, DMQ-MP 1 μg/ml or D-isoascorbic acid 100 μg/ml, read-out: cytotoxicity index (CI) value, summary; for cytotoxicity compared with DMQ, in words: drug without activator, versus DMQ; for cytotoxicity in combination with L-ascorbic acid or D-isoascorbic acid, in words: several human cancer cell lines, in vitro", "from_the_text": "as §1, §2, §3"}, "[5]": {"conditions": "background statement; cited from earlier work"}, "Solubility in H2O": {"experiment": "Solubility in H2O", "assay_type": "physicochemical", "conditions": "for solubility: water; for solubility / solubility relative to DMQ (times higher): H2O, 27° C.; for solubility relative to DMQ (times higher): versus DMQ; for water-solubility, in words: compared with DMQ"}, "Ehrlich ascites": {"test_system": "Ehrlich ascites", "conditions": "DMQ in combination with L-ascorbic acid; cited from earlier work"}, "normal cells": {"test_system": "normal cells", "conditions": "background statement; cited from earlier work"}, "[6]": {"conditions": "background statement; cited from earlier work", "remark": "listed apart in the source"}, "[7]": {"experiment": "Hydrophobicity (statement)", "assay_type": "physicochemical", "conditions": "to gain passage into the cell via the cell membrane"}, "[8]": {"conditions": "cited from earlier work"}, "[9]": {"conditions": "Table 2, D-isoascorbic acid 100 μg/ml alone"}, "[10]": {"conditions": "Table 3, DMQ-MA 1 μg/ml + L-ascorbate 100 μg/ml"}, "[11]": {"conditions": "Table 3, DMQ-MA 1 μg/ml, no activator"}, "[12]": {"conditions": "Table 2, DMQ-MP 1 μg/ml + D-isoascorbic acid 100 μg/ml"}, "[13]": {"conditions": "Table 2, DMQ-MP 1 μg/ml, no activator"}, "[14]": {"conditions": "Table 3, L-ascorbate 100 μg/ml alone"}},
  "note": "“Also recorded” adds a separate entry of the source.",
  "data": [
    {"compound": "O=C1O[C@H]([C@H](O)CO)C(O)=C1O", "note": "[D-isoascorbic acid, reference compound]", "values": [
      {"measurement": "CI", "setting": "[1]; [9]", "result": 11, "unit": "%"},
      {"measurement": "CI", "setting": "[2]; [9]", "result": 13, "unit": "%"},
      {"measurement": "CI", "setting": "[3]; [9]", "result": 24, "unit": "%"},
      {"measurement": "CI", "setting": "[4]; [9]", "result": 5, "unit": "%"},
      {"measurement": "cytotoxicity at 100 µg/mL", "setting": "human tumor cell lines; four human tumor cell lines", "result": "< 25", "unit": "%"}
    ]},
    {"compound": "COC1=CC(=O)C=C(OC)C1=O", "note": "[DMQ, 2,6-dimethoxy-p-benzoquinone]", "values": [
      {"measurement": "solubility in water, in words", "setting": "[5]", "result": "poor solubility in water"},
      {"measurement": "solubility", "setting": "Solubility in H2O", "result": 74, "unit": "µg/mL"},
      {"measurement": "effect in Ehrlich ascites-bearing mice, in words", "setting": "Ehrlich ascites", "result": "effective"},
      {"measurement": "cytotoxicity to normal cells, in words", "setting": "normal cells", "result": "certain degree of cytotoxicity; also recorded: destruction of normal cells"},
      {"measurement": "Cytotoxicity index (CI)", "setting": "[3]; drug 1.0 μg/ml, L-ascorbate 100 μg/ml", "result": 76.6, "unit": "%"},
      {"measurement": "Cytotoxicity index (CI)", "setting": "[3]; drug 10 μg/ml, no L-ascorbate", "result": 87.9, "unit": "%"},
      {"measurement": "precipitation from the blood, in words", "setting": "[6]", "result": "precipitate from the blood easily"}
    ]},
    {"compound": "COc1cc(O)c(SCC(=O)O)c(OC)c1O", "note": "[DMQ-MA, 2,6-dimethoxyhydroquinone-3-mercaptoacetic acid]", "values": [
      {"measurement": "CI", "setting": "[1]; [10]", "result": 89, "unit": "%"},
      {"measurement": "CI", "setting": "[1]; [11]", "result": 0, "unit": "%"},
      {"measurement": "CI", "setting": "[2]; [10]", "result": 86, "unit": "%"},
      {"measurement": "CI", "setting": "[2]; [11]", "result": 2, "unit": "%"},
      {"measurement": "solubility relative to DMQ (times higher)", "setting": "Solubility in H2O", "result": "about 70 times"},
      {"measurement": "water-solubility, in words", "setting": "Solubility in H2O", "result": "a lot more water-soluble than DMQ; also recorded: significantly improved water-solubility in comparison with DMQ"},
      {"measurement": "solubility", "setting": "Solubility in H2O", "result": 5000, "unit": "µg/mL"},
      {"measurement": "hydrophobicity, in words", "setting": "[7]", "result": "a certain degree of hydrophobicity"},
      {"measurement": "Cytotoxicity index (CI)", "setting": "[3]; drug 10 μg/ml, L-ascorbate 1.0 μg/ml (so in the source)", "result": 22.1, "unit": "%"},
      {"measurement": "CI", "setting": "[3]; [10]", "result": 86, "unit": "%"},
      {"measurement": "CI", "setting": "[3]; [11]", "result": 0, "unit": "%"},
      {"measurement": "CI value compared with DMQ, in words", "setting": "[3]; drug 10 μg/ml", "result": "significantly lower than DMQ"},
      {"measurement": "CI", "setting": "[4]; [10]", "result": 79, "unit": "%"},
      {"measurement": "CI", "setting": "[4]; [11]", "result": 3, "unit": "%"},
      {"measurement": "cytotoxicity compared with DMQ, in words", "setting": "human tumor cell lines", "result": "less cytotoxic"},
      {"measurement": "cytotoxicity in combination with L-ascorbic acid or D-isoascorbic acid, in words", "setting": "human tumor cell lines", "result": "greatly augmented; also recorded: act synergistically"}
    ]},
    {"compound": "COc1cc(O)c(SCCC(=O)O)c(OC)c1O", "note": "[DMQ-MP, 2,6-dimethoxyhydroquinone-3-mercaptopropionic acid]", "values": [
      {"measurement": "CI", "setting": "[1]; [12]", "result": 79, "unit": "%"},
      {"measurement": "CI", "setting": "[1]; [13]", "result": 10, "unit": "%"},
      {"measurement": "CI", "setting": "[2]; [12]", "result": 77, "unit": "%"},
      {"measurement": "CI", "setting": "[2]; [13]", "result": 13, "unit": "%"},
      {"measurement": "solubility relative to DMQ (times higher)", "setting": "Solubility in H2O", "result": "about 70 times"},
      {"measurement": "water-solubility, in words", "setting": "Solubility in H2O", "result": "a lot more water-soluble than DMQ; also recorded: significantly improved water-solubility in comparison with DMQ"},
      {"measurement": "solubility", "setting": "Solubility in H2O", "result": 5330, "unit": "µg/mL"},
      {"measurement": "hydrophobicity, in words", "setting": "[7]", "result": "a certain degree of hydrophobicity"},
      {"measurement": "Cytotoxicity index (CI)", "setting": "[3]; drug 10 μg/ml, no L-ascorbate", "result": 43.5, "unit": "%"},
      {"measurement": "CI", "setting": "[3]; [12]", "result": 78, "unit": "%"},
      {"measurement": "CI", "setting": "[3]; [13]", "result": 17, "unit": "%"},
      {"measurement": "CI value compared with DMQ, in words", "setting": "[3]; drug 10 μg/ml", "result": "significantly lower than DMQ"},
      {"measurement": "CI", "setting": "[4]; [12]", "result": 88, "unit": "%"},
      {"measurement": "CI", "setting": "[4]; [13]", "result": 11, "unit": "%"},
      {"measurement": "cytotoxicity at 100 µg/mL", "setting": "human tumor cell lines; four human tumor cell lines", "result": "< 25", "unit": "%"},
      {"measurement": "CI values, summary", "setting": "human tumor cell lines; DMQ-MP 1 μg/ml in combination with D-isoascorbic acid 100 μg/ml, four human tumor cell lines, 5760 min", "result": "77-88%"},
      {"measurement": "cytotoxicity compared with DMQ, in words", "setting": "human tumor cell lines", "result": "less cytotoxic"},
      {"measurement": "cytotoxicity in combination with L-ascorbic acid or D-isoascorbic acid, in words", "setting": "human tumor cell lines", "result": "greatly augmented; also recorded: act synergistically"}
    ]},
    {"compound": "O=C1O[C@H]([C@@H](O)CO)C(O)=C1O", "note": "[L-ascorbate, reference compound]", "values": [
      {"measurement": "CI", "setting": "[1]; [14]", "result": 0.4, "unit": "%"},
      {"measurement": "CI", "setting": "[2]; [14]", "result": 9, "unit": "%"},
      {"measurement": "CI", "setting": "[3]; [14]", "result": 5, "unit": "%"},
      {"measurement": "concentration of L-ascorbate in the human body", "setting": "[8]", "result": "≤ 1000", "unit": "µM"},
      {"measurement": "CI", "setting": "[4]; [14]", "result": 2, "unit": "%"}
    ]}
  ]
}
